Experimental data: patent US7138361B2, “Herbicidal heterocycles” (E. I. du Pont de Nemours and Company, priority 2000, dated 2006)

Legend:
Assay type in all cases: in vivo
Nightshade [1] = assay: Test C preemergence; conditions: Rate 500 g/ha, visual evaluation after 12 to 14 days
[2] = test system: barnyardgrass (Echinochloa crus-galli); assay: Test C flooded paddy test; conditions: for Plant response rating, Barnyardgrass: scale 0 to 100 (0 no effect, 100 complete control)
Procedure, shortened: (§1)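 Ratings come from visual comparison with control plants after 12 to 14 days in the greenhouse. Each species was at the 2-leaf stage when the flooded paddy was treated. Scores run from 0, meaning no effect, to 100, meaning complete control.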

[3] = test system: smallflower flatsedge (Cyperus difformis); assay: Test C flooded paddy test; conditions: for Plant response rating, Flatsedge: scale 0 to 100 (0 no effect, 100 complete control)
Procedure, shortened: as §1

rice (Oryza saliva) = assay: Test C flooded paddy test; conditions: for Plant response rating, Rice: scale 0 to 100 (0 no effect, 100 complete control)
Procedure, shortened: as §1

[4] = test system: duck salad (Heteranthera limosa); assay: Test C flooded paddy test; conditions: for Plant response rating, Ducksalad: scale 0 to 100 (0 no effect, 100 complete control)
Procedure, shortened: as §1

kochia (Kochia scoparia) = assay: Test C preemergence
Procedure, shortened: (§2)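 Each compound was dissolved in a non-phytotoxic solvent system containing a surfactant and sprayed either on freshly planted seeds (preemergence) or on young plants, 2 to 18 cm high (postemergence). Ratings after 12 to 14 greenhouse days ran from 0, no effect, to 100, complete control.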

Sunflower = assay: Test C preemergence; conditions: Rate 125 g/ha; scale 0 to 100, 0 no effect, 100 complete control
[5] = test system: cocklebur (Xanthium strumarium); assay: Test C preemergence
Procedure, shortened: as §2

[6] = test system: johnsongrass (Sorghum halepense); assay: Test C preemergence
Procedure, shortened: as §2

[7] = test system: pigweed (Amaranthus retroflexus); assay: Test C preemergence
Procedure, shortened: as §2

[8] = test system: goosegrass (Eleusine indica); assay: Test C preemergence
Procedure, shortened: as §2

[9] = test system: Surinam grass (Brachiaria decumbens); assay: Test C preemergence
Procedure, shortened: as §2

[10] = test system: woolly cupgrass (Eriochloa villosa); assay: Test C preemergence
Procedure, shortened: as §2

[11] = test system: common ragweed (Ambrosia elatior); assay: Test C preemergence
Procedure, shortened: as §2

soybean (Glycine max) = assay: Test C preemergence
Procedure, shortened: as §2

[12] = test system: bermudagrass (Cynodon dactylon); assay: Test C preemergence
Procedure, shortened: as §2

[13] = test system: crabgrass (Digitaria sanguinalis); assay: Test C preemergence
Procedure, shortened: as §2

corn (Zea mays) = assay: Test C preemergence; conditions: for Plant response rating, Corn: scale 0 to 100, 0 no effect, 100 complete control
Procedure, shortened: as §2

[14] = test system: morningglory (Ipomoea hederacea); assay: Test C preemergence
Procedure, shortened: as §2

[15] = test system: velvetleaf (Abutilon theophrasti); assay: Test C preemergence
Procedure, shortened: as §2

Nightshade [16] = assay: Test C preemergence
[17] = test system: yellow nutsedge (Cyperus esculentus); assay: Test C preemergence
Procedure, shortened: as §2

[18] = test system: giant foxtail (Setaria faberii); assay: Test C preemergence
Procedure, shortened: as §2

[19] = Flooded Paddy, Rate 500 g/ha, scale 0 to 100, 0 no effect, 100 complete control
[20] = flooded paddy test, Rate 125 g/ha
[21] = flooded paddy test, Rate 250 g/ha
[22] = flooded paddy test, Rate 62 g/ha, visually evaluated after 12 to 14 days, 0 = no effect, 100 = complete control
[23] = Rate 125 g/ha, scale 0 to 100, 0 no effect, 100 complete control
[24] = preemergence, Rate 62 g/ha, scale 0 to 100
[25] = preemergence, Rate 500 g/ha, visual evaluation after 12 to 14 days
[26] = preemergence, Rate 250 g/ha, scale 0 to 100, 0 no effect, 100 complete control

CCC(C)c1ccn(C2OCN(c3cccc(OC(F)F)c3)C2=O)n1 (stereo not drawn) [Compound 134]
Plant response rating (0 to 100), Nightshade (Nightshade [1]): 90 | Barnyardgrass plant response rating [2, 19]: 100 | Plant response rating, Barnyardgrass [2, 20]: 100 | Plant response rating, Barnyardgrass [2, 21]: 100 | Plant response rating (scale 0 to 100), Barnyardgrass [2, 22]: 100 | Flatsedge plant response rating [3, 19]: 100 | Plant response rating, Flatsedge [3, 20]: 100 | Plant response rating, Flatsedge [3, 21]: 100 | Plant response rating (scale 0 to 100), Flatsedge [3, 22]: 90 | Rice plant response rating (rice (Oryza saliva); [19]): 90 | Plant response rating, Rice (rice (Oryza saliva); [20]): 60 | Plant response rating, Rice (rice (Oryza saliva); [21]): 90 | Plant response rating (scale 0 to 100), Rice (rice (Oryza saliva); [22]): 0 | Ducksalad plant response rating [4, 19]: 100 | Plant response rating, Ducksalad [4, 20]: 90 | Plant response rating, Ducksalad [4, 21]: 100 | Plant response rating (scale 0 to 100), Ducksalad [4, 22]: 60 | Plant response rating, Kochia (kochia (Kochia scoparia); [23]): 100 | Plant response rating, Kochia (kochia (Kochia scoparia); [24]): 100 | Plant response rating (0 to 100), Kochia (kochia (Kochia scoparia); [25]): 100 | Plant response rating, Kochia (kochia (Kochia scoparia); [26]): 100 | Plant response rating, Sunflower (Sunflower): 0 | Plant response rating, Cocklebur [5, 23]: 0 | Plant response rating, Cocklebur [5, 24]: 0 | Plant response rating (0 to 100), Cocklebur [5, 25]: 0 | Plant response rating, Cocklebur [5, 26]: 0 | Plant response rating, Johnsongrass [6, 23]: 100 | Plant response rating, Johnsongrass [6, 24]: 100 | Plant response rating (0 to 100), Johnsongrass [6, 25]: 100 | Plant response rating, Johnsongrass [6, 26]: 100 | Plant response rating, Pigweed [7, 23]: 100 | Plant response rating, Pigweed [7, 24]: 100 | Plant response rating (0 to 100), Pigweed [7, 25]: 100 | Plant response rating, Pigweed [7, 26]: 100 | Plant response rating, Goosegrass [8, 23]: 100 | Plant response rating, Goosegrass [8, 24]: 100 | Plant response rating (0 to 100), Goosegrass [8, 25]: 100 | Plant response rating, Goosegrass [8, 26]: 100 | Plant response rating, Surinam grass [9, 23]: 100 | Plant response rating, Surinam grass [9, 24]: 100 | Plant response rating (0 to 100), Surinam grass [9, 25]: 100 | Plant response rating, Surinam grass [9, 26]: 100 | Plant response rating, Cupgrass, Woolly [10, 23]: 100 | Plant response rating, Cupgrass, Woolly [10, 24]: 100 | Plant response rating (0 to 100), Cupgrass, Woolly [10, 25]: 100 | Plant response rating, Cupgrass, Woolly [10, 26]: 100 | Plant response rating, Ragweed, Common [11, 23]: 0 | Plant response rating, Ragweed, Common [11, 24]: 0 | Plant response rating (0 to 100), Ragweed, Common [11, 25]: 40 | Plant response rating, Ragweed, Common [11, 26]: 0 | Plant response rating, Soybean (soybean (Glycine max); [23]): 0 | Plant response rating, Soybean (soybean (Glycine max); [24]): 0 | Plant response rating (0 to 100), Soybean (soybean (Glycine max); [25]): 20 | Plant response rating, Soybean (soybean (Glycine max); [26]): 0 | Plant response rating, Bermudagrass [12, 23]: 100 | Plant response rating, Bermudagrass [12, 24]: 100 | Plant response rating (0 to 100 where 0 is no effect and 100 is complete control), Bermudagrass [12, 25]: 100 | Plant response rating, Bermudagrass [12, 26]: 100 | Plant response rating, Crabgrass [13, 23]: 100 | Plant response rating, Crabgrass [13, 24]: 100 | Plant response rating (0 to 100), Crabgrass [13, 25]: 100 | Plant response rating, Crabgrass [13, 26]: 100 | Plant response rating, Corn (corn (Zea mays); Rate 125 g/ha): 20 | Plant response rating (0 to 100), Corn (corn (Zea mays); [25]): 100 | Plant response rating, Corn (corn (Zea mays); preemergence, Rate 250 g/ha): 100 | Plant response rating, Morningglory [14, 23]: 0 | Plant response rating, Morningglory [14, 24]: 0 | Plant response rating (0 to 100), Morningglory [14, 25]: 0 | Plant response rating, Morningglory [14, 26]: 0 | Plant response rating, Velvetleaf [15, 23]: 20 | Plant response rating, Velvetleaf [15, 24]: 20 | Plant response rating (0 to 100), Velvetleaf [15, 25]: 20 | Plant response rating, Velvetleaf [15, 26]: 20 | Plant response rating, Nightshade (Nightshade [16]; Rate 62 g/ha, scale 0 to 100): 0 | Plant response rating, Nightshade (Nightshade [16]; [23]): 10 | Plant response rating, Nightshade (Nightshade [16]; Rate 250 g/ha, scale 0 to 100, 0 no effect, 100 complete control): 30 | Plant response rating, Nutsedge [17, 23]: 70 | Plant response rating, Nutsedge [17, 24]: 60 | Plant response rating (0 to 100), Nutsedge [17, 25]: 100 | Plant response rating, Nutsedge [17, 26]: 90 | Plant response rating, Foxtail, Giant [18, 23]: 100 | Plant response rating, Foxtail, Giant [18, 24]: 90 | Plant response rating (0 to 100), Foxtail, Giant [18, 25]: 100 | Plant response rating, Foxtail, Giant [18, 26]: 100
